{"source": "patent US20020137929A1", "about": "“1 - (3-heterocyclylphenyl) isothiourea, -isourea, -guanidine and -amidine herbicidal agents” (Intellectual Property Department, BASF Aktiengesellschaft, priority 1998, published 2002)", "key": {"[1]": {"system": "ORYSAT (Rice, Tebonnet)", "assay": "Preemergence herbicidal evaluation", "type": "in vivo, Oryza sativa, (L.) Tebonnet", "conditions": "rated 4-5 weeks after treatment", "method_in_brief": "(§1)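 Each species is sown separately in potting soil over roughly an inch of soil before any emergence. The soil surface then receives an aqueous acetone spray delivering about 0.0156 to 0.500 kg/ha of compound. After four to five weeks, injury is scored from 0 to 9 relative to a control.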"}, "[2]": {"system": "TRZAWR (Wheat, Winter, cv Riband)", "assay": "Postemergence herbicidal evaluation", "type": "in vivo, Triticum aestivum", "conditions": "postemergence", "method_in_brief": "(§2)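 Visual 0–9 rating versus control (stand, vigor, malformation, size, chlorosis, overall appearance), taken four to five weeks post-spray. Two-week-old seedlings received roughly 0.0156–0.500 kg/ha active in acetone/water (50/50) with 0.5% TWEEN 20 via nozzle at 40 psi.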"}, "[3]": {"system": "AMBEL (Ragweed, Common)", "assay": "Preemergence herbicidal evaluation", "type": "in vivo, Ambrosia artemisifolia", "conditions": "rated 4-5 weeks after treatment", "method_in_brief": "as §1"}, "[4]": {"system": "CHEAL (Lambsquarters, Common)", "assay": "Preemergence herbicidal evaluation", "type": "in vivo, Chenopodium album", "conditions": "rated 4-5 weeks after treatment", "method_in_brief": "as §1"}, "[5]": {"system": "CASOB (Sicklepod)", "assay": "Postemergence herbicidal evaluation", "type": "in vivo, Cassia obtusifolia", "conditions": "postemergence", "method_in_brief": "as §2"}, "[6]": {"system": "CHEAL (Lambsquarters, Common)", "assay": "Postemergence herbicidal evaluation", "type": "in vivo, Chenopodium album", "conditions": "postemergence", "method_in_brief": "as §2"}, "[7]": {"system": "CASOB (Sicklepod)", "assay": "Preemergence herbicidal evaluation", "type": "in vivo, Cassia obtusifolia", "conditions": "rated 4-5 weeks after treatment", "method_in_brief": "as §1"}, "[8]": {"system": "AMBEL (Ragweed, Common)", "assay": "Postemergence herbicidal evaluation", "type": "in vivo, Ambrosia artemisifolia", "conditions": "postemergence", "method_in_brief": "as §2"}, "[9]": {"system": "IPOHE (Morningglory, Ivyleaf)", "assay": "Postemergence herbicidal evaluation", "type": "in vivo, Ipomoea hederacea", "conditions": "postemergence", "method_in_brief": "as §2"}, "[10]": {"system": "SAGPY (Arrowhead (Pygmaea))", "assay": "Preemergence weed control under flooded paddy conditions", "type": "in vivo, Sagittaria pygmaea", "conditions": "rated 3-4 weeks after treatment", "method_in_brief": "(§3)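 Using flooded silt loam (water 1.5 to 3 cm deep), seeds sown in the top 0.5 cm were exposed preemergence to compound pipetted into the flood at about 0.0313 to 0.500 kg/ha. Effects were scored 0-9 by eye three to four weeks later.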"}, "[11]": {"system": "IPOHE (Morningglory, Ivyleaf)", "assay": "Preemergence herbicidal evaluation", "type": "in vivo, Ipomoea hederacea", "conditions": "rated 4-5 weeks after treatment", "method_in_brief": "as §1"}, "[12]": {"system": "ABUTH (Velvetleaf)", "assay": "Preemergence herbicidal evaluation", "type": "in vivo, Abutilon theophrasti", "conditions": "rated 4-5 weeks after treatment", "method_in_brief": "as §1"}, "[13]": {"system": "MOOVA (Monochoria)", "assay": "Preemergence weed control under flooded paddy conditions", "type": "in vivo, Monochoria vaginalis", "conditions": "rated 3-4 weeks after treatment", "method_in_brief": "as §3"}, "[14]": {"system": "GLXMAW (Soybean, Williams)", "assay": "Preemergence herbicidal evaluation", "type": "in vivo, Glycine max, (L.) Merr. cv Williams", "conditions": "rated 4-5 weeks after treatment", "method_in_brief": "as §1"}, "[15]": {"system": "GLXMAW (Soybean, Williams)", "assay": "Postemergence herbicidal evaluation", "type": "in vivo, Glycine max, (L.) Merr. cv Williams", "conditions": "postemergence", "method_in_brief": "as §2"}, "[16]": {"system": "ECHCG (Barnyardgrass)", "assay": "Postemergence herbicidal evaluation", "type": "in vivo, Echinochloa crus-galli", "conditions": "postemergence", "method_in_brief": "as §2"}}, "data": [{"smiles": "Cn1c(C(F)(F)F)cc(=O)n(-c2cc(N=C3SCC(=O)N3CC(=O)OCC3CC3)c(Cl)cc2F)c1=O", "note": "[Compound 124, Cyclopropylmethyl 2-{{2-chloro-5-[3,6-dihydro-3-methyl-2,6-dioxo-4-(trifluoromethyl)-1(2H)-pyrimidinyl]-4-fluorophenyl}imino}-4-oxo-3-thiazolidineacetate]", "values": [{"measurement": "Preemergence herbicidal rating ORYSAT", "setting": "[1]; rate 0.0156 kg/ha", "value": 0.0}, {"measurement": "Preemergence herbicidal rating ORYSAT", "setting": "[1]; rate 0.0313 kg/ha", "value": 0.0}, {"measurement": "Preemergence herbicidal rating ORYSAT", "setting": "[1]; rate 0.0625 kg/ha", "value": 0.0}, {"measurement": "Preemergence herbicidal rating ORYSAT", "setting": "[1]; rate 0.1250 kg/ha", "value": 0.0}, {"measurement": "Preemergence herbicidal rating ORYSAT", "setting": "[1]; rate 0.2500 kg/ha", "value": 0.0}, {"measurement": "Preemergence herbicidal rating ORYSAT", "setting": "[1]; rate 0.5000 kg/ha", "value": 2.0}, {"measurement": "herbicidal rating TRZAWR", "setting": "[2]; rate 0.0156 kg/ha", "value": 3.7}, {"measurement": "herbicidal rating TRZAWR", "setting": "[2]; rate 0.0313 kg/ha", "value": 4.3}, {"measurement": "herbicidal rating TRZAWR", "setting": "[2]; rate 0.0625 kg/ha", "value": 5.0}, {"measurement": "Preemergence herbicidal rating AMBEL", "setting": "[3]; rate 0.0156 kg/ha", "value": 0.0}, {"measurement": "Preemergence herbicidal rating AMBEL", "setting": "[3]; rate 0.0313 kg/ha", "value": 0.0}, {"measurement": "Preemergence herbicidal rating AMBEL", "setting": "[3]; rate 0.0625 kg/ha", "value": 4.0}, {"measurement": "Preemergence herbicidal rating AMBEL", "setting": "[3]; rate 0.1250 kg/ha", "value": 9.0}, {"measurement": "Preemergence herbicidal rating AMBEL", "setting": "[3]; rate 0.2500 kg/ha", "value": 9.0}, {"measurement": "Preemergence herbicidal rating AMBEL", "setting": "[3]; rate 0.5000 kg/ha", "value": 9.0}, {"measurement": "Preemergence herbicidal rating CHEAL", "setting": "[4]; rate 0.0156 kg/ha", "value": 9.0}, {"measurement": "Preemergence herbicidal rating CHEAL", "setting": "[4]; rate 0.0313 kg/ha", "value": 9.0}, {"measurement": "Preemergence herbicidal rating CHEAL", "setting": "[4]; rate 0.0625 kg/ha", "value": 9.0}, {"measurement": "Preemergence herbicidal rating CHEAL", "setting": "[4]; rate 0.1250 kg/ha", "value": 9.0}, {"measurement": "Preemergence herbicidal rating CHEAL", "setting": "[4]; rate 0.2500 kg/ha", "value": 9.0}, {"measurement": "Preemergence herbicidal rating CHEAL", "setting": "[4]; rate 0.5000 kg/ha", "value": 9.0}, {"measurement": "herbicidal rating CASOB", "setting": "[5]; rate 0.0156 kg/ha", "value": 2.0}, {"measurement": "herbicidal rating CASOB", "setting": "[5]; rate 0.0313 kg/ha", "value": 2.0}, {"measurement": "herbicidal rating CASOB", "setting": "[5]; rate 0.0625 kg/ha", "value": 3.0}, {"measurement": "herbicidal rating CHEAL", "setting": "[6]; rate 0.0156 kg/ha", "value": 9.0}, {"measurement": "herbicidal rating CHEAL", "setting": "[6]; rate 0.0313 kg/ha", "value": 9.0}, {"measurement": "herbicidal rating CHEAL", "setting": "[6]; rate 0.0625 kg/ha", "value": 9.0}, {"measurement": "Preemergence herbicidal rating CASOB", "setting": "[7]; rate 0.0156 kg/ha", "value": 0.0}, {"measurement": "Preemergence herbicidal rating CASOB", "setting": "[7]; rate 0.0313 kg/ha", "value": 0.0}, {"measurement": "Preemergence herbicidal rating CASOB", "setting": "[7]; rate 0.0625 kg/ha", "value": 1.0}, {"measurement": "Preemergence herbicidal rating CASOB", "setting": "[7]; rate 0.1250 kg/ha", "value": 0.0}, {"measurement": "Preemergence herbicidal rating CASOB", "setting": "[7]; rate 0.2500 kg/ha", "value": 3.0}, {"measurement": "Preemergence herbicidal rating CASOB", "setting": "[7]; rate 0.5000 kg/ha", "value": 0.0}, {"measurement": "herbicidal rating AMBEL", "setting": "[8]; rate 0.0156 kg/ha", "value": 9.0}, {"measurement": "herbicidal rating AMBEL", "setting": "[8]; rate 0.0313 kg/ha", "value": 9.0}, {"measurement": "herbicidal rating AMBEL", "setting": "[8]; rate 0.0625 kg/ha", "value": 9.0}, {"measurement": "herbicidal rating IPOHE", "setting": "[9]; rate 0.0156 kg/ha", "value": 9.0}, {"measurement": "herbicidal rating IPOHE", "setting": "[9]; rate 0.0313 kg/ha", "value": 9.0}, {"measurement": "herbicidal rating IPOHE", "setting": "[9]; rate 0.0625 kg/ha", "value": 9.0}, {"measurement": "herbicidal effect rating, SAGPY", "setting": "[10]; 0.0313 kg/ha", "value": 0.0}, {"measurement": "herbicidal effect rating, SAGPY", "setting": "[10]; 0.0625 kg/ha", "value": 0.0}, {"measurement": "herbicidal effect rating, SAGPY", "setting": "[10]; 0.1250 kg/ha", "value": 4.0}, {"measurement": "herbicidal effect rating, SAGPY", "setting": "[10]; 0.2500 kg/ha", "value": 5.0}, {"measurement": "Preemergence herbicidal rating IPOHE", "setting": "[11]; rate 0.0156 kg/ha", "value": 0.0}, {"measurement": "Preemergence herbicidal rating IPOHE", "setting": "[11]; rate 0.0313 kg/ha", "value": 0.0}, {"measurement": "Preemergence herbicidal rating IPOHE", "setting": "[11]; rate 0.0625 kg/ha", "value": 0.0}, {"measurement": "Preemergence herbicidal rating IPOHE", "setting": "[11]; rate 0.1250 kg/ha", "value": 0.0}, {"measurement": "Preemergence herbicidal rating IPOHE", "setting": "[11]; rate 0.2500 kg/ha", "value": 1.0}, {"measurement": "Preemergence herbicidal rating IPOHE", "setting": "[11]; rate 0.5000 kg/ha", "value": 6.0}, {"measurement": "Preemergence herbicidal rating ABUTH", "setting": "[12]; rate 0.0156 kg/ha", "value": 0.0}, {"measurement": "Preemergence herbicidal rating ABUTH", "setting": "[12]; rate 0.0313 kg/ha", "value": 0.0}, {"measurement": "Preemergence herbicidal rating ABUTH", "setting": "[12]; rate 0.0625 kg/ha", "value": 0.0}, {"measurement": "Preemergence herbicidal rating ABUTH", "setting": "[12]; rate 0.1250 kg/ha", "value": 2.0}, {"measurement": "Preemergence herbicidal rating ABUTH", "setting": "[12]; rate 0.2500 kg/ha", "value": 4.0}, {"measurement": "Preemergence herbicidal rating ABUTH", "setting": "[12]; rate 0.5000 kg/ha", "value": 7.0}, {"measurement": "herbicidal effect rating, MOOVA", "setting": "[13]; 0.0313 kg/ha", "value": 0.0}, {"measurement": "herbicidal effect rating, MOOVA", "setting": "[13]; 0.0625 kg/ha", "value": 0.0}, {"measurement": "herbicidal effect rating, MOOVA", "setting": "[13]; 0.1250 kg/ha", "value": 0.0}, {"measurement": "herbicidal effect rating, MOOVA", "setting": "[13]; 0.2500 kg/ha", "value": 7.0}, {"measurement": "Preemergence herbicidal rating GLXMAW", "setting": "[14]; rate 0.0156 kg/ha", "value": 0.0}, {"measurement": "Preemergence herbicidal rating GLXMAW", "setting": "[14]; rate 0.0313 kg/ha", "value": 0.0}, {"measurement": "Preemergence herbicidal rating GLXMAW", "setting": "[14]; rate 0.0625 kg/ha", "value": 0.0}, {"measurement": "Preemergence herbicidal rating GLXMAW", "setting": "[14]; rate 0.1250 kg/ha", "value": 0.0}, {"measurement": "Preemergence herbicidal rating GLXMAW", "setting": "[14]; rate 0.2500 kg/ha", "value": 0.0}, {"measurement": "Preemergence herbicidal rating GLXMAW", "setting": "[14]; rate 0.5000 kg/ha", "value": 3.0}, {"measurement": "herbicidal rating GLXMAW", "setting": "[15]; rate 0.0156 kg/ha", "value": 6.7}, {"measurement": "herbicidal rating GLXMAW", "setting": "[15]; rate 0.0313 kg/ha", "value": 7.3}, {"measurement": "herbicidal rating GLXMAW", "setting": "[15]; rate 0.0625 kg/ha", "value": 7.0}, {"measurement": "herbicidal rating ECHCG", "setting": "[16]; rate 0.0156 kg/ha", "value": 3.0}, {"measurement": "herbicidal rating ECHCG", "setting": "[16]; rate 0.0313 kg/ha", "value": 3.0}, {"measurement": "herbicidal rating ECHCG", "setting": "[16]; rate 0.0625 kg/ha", "value": 5.0}]}]}
